Data as given in US8148516B2, “Flowcell systems for single molecule detection” (Pacific Biosciences of California, Inc., priority 2000, dated 2012).

Assay: Capillary electrophoresis of dTTP and dTDP: effect of Mg++ on electrophoretic mobility
Assay type: physicochemical
Settings: 50 mM Tris-acetate pH 8.0, 60 mM KCl; for effect of Mg++ on electrophoretic mobility: MgCl2 3-40 mM
Procedure: The effect of Mg^++ on the electrophoretic mobility of dTTP and dTDP was determined by capillary electrophoresis. Electrophoresis buffer contained 50 mM Tris-acetate pH 8.0, 60 mM KCl, and various concentrations of MgCl2 (3, 4, 6, 10, 15, 25 and 40 mM). The sample contained 0.5 mM nucleotide (dTTP or dTDP; Sigma) and 0.8 mM mesityl oxide (electroneutral marker; Sigma). The samples were analyzed by capillary electrophoresis (Hewlett Packard) using an uncoated fused silica capillary (40 cm from injection end to detection zone). Voltage was 8.5 kV and peaks were monitored by optical absorbance at 260 nm. Electrokinetic velocity of each sample peak was calculated by dividing distance (40 cm) by elution time. Electroosmotic flow (EOF) of the bulk buffer is taken as the velocity of the mesityl oxide marker. Nucleotide electrophoretic velocity is the nucleotide electrokinetic velocity minus EOF. Nucleotide electrophoretic velocities are plotted as a function of Mg^++ concentration (FIG. 11A).

Row | Structure (SMILES) | effect of Mg++ on electrophoretic mobility | electrophoretic mobility compared with dTDP (3-40 mM MgCl2, 8.5 kV)
1 | Cc1cn([C@H]2C[C@H](O)[C@@H](COP(=O)(O)OP(=O)(O)O)O2)c(=O)[nH]c1=O [dTDP] | from more negative to less negative | –
2 | Cc1cn([C@H]2C[C@H](O)[C@@H](COP(=O)(O)OP(=O)(O)OP(=O)(O)O)O2)c(=O)[nH]c1=O [dTTP] | from more negative to less negative | more negative electrophoretic mobility than the dTDP
